This note sets out measurements from patent US20070197488A1, “Prodrugs of ERbeta-selective substances, process for their production, and pharmaceutical compositions that contain these compounds” (priority 2005, published 2007).

By IC50 is commonly meant the concentration at which inhibition is half-maximal.

In series [1] the target is Human Carbonic Anhydrase I (Homo sapiens, UniProt P00915). The series is described as follows: Carbonic anhydrase inhibition (CO2 hydration, time to pH drop). The format is biochemical. To be noted: read-out: CAI IC50. The protocol:
(§1) b) Carbonic Anhydrase Inhibition—Test Principle and Test Description:
(§2) Carbonic anhydrases catalyze the CO2 hydration.
(§3) Test preparation: A constant CO2 stream is directed through a buffer that was mixed with carbonic anhydrase I or carbonic anhydrase II. The measuring parameter is the time that is required to drop the pH within defined limits. This parameter reflects the formation of H2CO3 in the medium. IC50-Inhibiting values are determined by test substances being pipetted into the test preparation.

The target in series [2] is Human Carbonic Anhydrase II (Homo sapiens, UniProt P00918). The series is described as above. To be noted: read-out: CAII IC50. The format is biochemical. The method, then:
as §1, §2, §3

Series [3] is described as follows: Plasma level of released mother estrogen after oral administration in ovariectomized rats. The format is in vivo, Wistar rats. To be noted: 1x oral 1 mg/animal, compared with oral 8-vinyl-E2. The protocol: Adult Wistar rats were ovariectomized 14 days after this operation for the study of the substances according to the invention. A treatment extended over 3 days (days 1-3), and on day 4, the animals were sacrificed. Then, the recovery of plasma for hormone-analytical and clinical-chemical determinations and the determination of uterus weights were carried out. In satellite tests, correspondingly conditioned animals were sacrificed and samples were taken of their blood after one-time treatment and at other times (see FIGS. 1 and 2).

Chain of Human Carbonic Anhydrase I (P00915 whole entry): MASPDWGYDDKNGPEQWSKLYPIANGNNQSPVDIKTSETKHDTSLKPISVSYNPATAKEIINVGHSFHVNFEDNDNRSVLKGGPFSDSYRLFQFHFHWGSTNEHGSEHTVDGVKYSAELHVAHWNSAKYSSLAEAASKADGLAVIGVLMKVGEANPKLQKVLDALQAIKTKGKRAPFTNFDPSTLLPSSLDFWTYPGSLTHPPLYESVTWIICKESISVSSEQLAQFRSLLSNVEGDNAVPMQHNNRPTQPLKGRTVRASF

Regarding `C=C[C@@]12CCc3cc(O)ccc3[C@H]1CC[C@]1(C)[C@@H](OC(=O)c3ccccc3)CC[C@H]12` [(3′-Hydroxy-8′beta-vinyl-estra-1′,3′,5′(10′)-trien-17′beta-yl)-benzoat], the IC50 in series [1] and in series [2] was greater than 10000 nM each time.

`C[C@]12CC[C@@H]3c4ccc(OS(N)(=O)=O)cc4CC[C@H]3[C@@H]1CC[C@@H]2O` [Estradiol-3-sulfamate]: the IC50 in series [1] came to 157 ± 10.6 nM; in series [2], 21.6 ± 1.5 nM.

Take `C=C[C@@]12CCc3cc(O)ccc3[C@H]1CC[C@]1(C)[C@@H](OC(=O)c3cccc(S(N)(=O)=O)c3)CC[C@H]12` [Example 1, (3′-Hydroxy-8′-vinylestra-1′,3′,5′(10′)-trien-17′β-yl)-3-sulfamoyl benzoate]: the IC50 amounted to 3900 nM in series [1] and 570 nM in series [2]. Besides, in series [3], the “Increase of the 8β-vinylestra-1,3,5(10)-triene-3,17β-diol level (8-vinyl-E2) in the plasma” value was “Considerably greater increase”.

As for `C=C[C@@]12CCc3cc(O)ccc3[C@H]1CC[C@]1(C)[C@@H](OC(=O)c3ccc(S(N)(=O)=O)cc3)CC[C@H]12` [Example 2, (3′-Hydroxy-8′-vinylestra-1′,3′,5′(10′)-trien-17′β-yl)-4-sulfamoyl benzoate], in series [3], the “Increase of the 8β-vinylestra-1,3,5(10)-triene-3,17β-diol level (8-vinyl-E2) in the plasma” value is “greater increase”.
